Broadly, the EC50 is the midpoint of the concentration-response curve.

In this test the target is T1, human TGR5 (Homo sapiens, UniProt Q8TDU6).
T1 construct: expressed in transfected cells
T1 sequence (Q8TDU6 1-330): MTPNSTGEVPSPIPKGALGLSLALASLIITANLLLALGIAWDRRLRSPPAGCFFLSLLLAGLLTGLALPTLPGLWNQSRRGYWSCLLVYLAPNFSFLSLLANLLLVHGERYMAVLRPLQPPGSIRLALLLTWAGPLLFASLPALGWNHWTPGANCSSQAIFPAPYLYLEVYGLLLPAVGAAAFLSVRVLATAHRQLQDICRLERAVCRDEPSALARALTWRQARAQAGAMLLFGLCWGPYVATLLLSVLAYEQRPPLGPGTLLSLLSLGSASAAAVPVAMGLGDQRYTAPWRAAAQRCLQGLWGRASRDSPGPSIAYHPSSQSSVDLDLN
Briefly: cAMP production assay in HEK293 cells stably expressing TGR5 (LANCE TR-FRET). In kind it is cell-based. The following applies: 30 minutes stimulation, read-out: cAMP Production in 293-TGR5 Cells EC50. How it is done:
HEK293 cells stably expressing TGR5 (HEK293-TGR5) were established by stably transfecting HEK-293 cells with an expression vector (pcDNA 3.1, Invetrogen) inserted with human TGR5 cDNA using Fugene6 (Roche, Indianapolis, Ind.) according to conventional methods. Cells were grown in DMEM (invitrogen, Carlsbad, Calif.) supplemented with 10% FBS, 1% penicillin/streptomycin under geneticin selection. The presence of TGR5 transcripts in these cells was confirmed using branched DNA (bDNA, Genospectra, Inc., Fremont Calif.) following the manufacturer's protocol and using specific probes for human TGR5. cAMP production assay was performed in high throughput 1536 well format using LANCE cAMP detection kit (Perkin Elmer Inc., Boston, Mass.) according to the manufacturer's protocol. Briefly, HEK293-TGR5 cells were harvested using non-enzymatic cell dissociation buffer (Invitrogen, Carlsbad, Calif.) and suspended in DMEM supplemented with 0.1% FBS at a density of 800,000 cells/ml. Alexa antibody was added to the cell suspension, and 4 ul of the mixture was dispensed in white opaque tissue culture treated Greiner 1536 well plates (USA Scientific, Inc., Ocala, Fla.). After an overnight incubation at 37 C in an atmosphere of 10% CO2 and 95% humidity, 1 ul of 5 mM IBMX (Sigma, St. Louis, Mo.) solution in DMEM was dispensed for a final concentration of 1 mM. Cells were then stimulated with test compounds for 30 minutes, after which time 5 ul of detection reagent was added and incubated for 1-7 hrs at room temperature. TR-FRET signal was detected using the Viewlux (Perkin Elmer Inc., Boston Mass.). EC50 values were determined using Graph Pad Prizm analysis (GraphPad Software, Inc). The EC50 values for a wide range of bile acids generated from this assay were in agreement with the values published in the scientific literature. […] The symbol (+) denotes an EC50 value of ≦10 μM while the symbol (−) denotes an EC50 value of >10 μM (see Table 1).
For orientation: Cyclic AMP is a second messenger, typically raised through Gs and lowered through Gi signalling.
As for `O=c1c2ccccc2nc(-c2ccc(F)cc2)n1NCc1ccc2ccccc2c1` [Example 38, 2-(4-fluorophenyl)-3-(naphthalen-2-ylmethylamino)quinazolin-4(3H)-one], the EC50 is no more than 10 µM.

As to `O=c1c2ccccc2nc(-c2ccco2)n1NCc1ccc(Br)cc1` [Example 40, 3-(4-bromobenzylamino)-2-(furan-2-yl)quinazolin-4(3H)-one], the EC50 was no more than 10 µM.

Turning to `O=c1c2ccccc2nc(-c2ccco2)n1N(Cc1ccc(Br)cc1)Cc1ccc(Br)cc1` [Example 41, 3-(bis(4-bromobenzyl)amino)-2-(furan-2-yl)quinazolin-4(3H)-one], the EC50 is no more than 10 µM.

On to `CN(C)c1ccc(-c2nc3ccccc3c(=O)n2NCc2ccc(Br)cc2)cc1` [Example 42, 3-(4-bromobenzylamino)-2-(4-(dimethylamino)phenyl)quinazolin-4(3H)-one], for which the EC50 is greater than 10 µM.

Turning to `CN(C)c1ccc(-c2nc3ccccc3c(=O)n2NCc2ccc(Cl)cc2)cc1` [Example 43, 3-(4-chlorobenzylamino)-2-(4-(dimethylamino)phenyl)quinazolin-4(3H)-one], the EC50 is no more than 10 µM.

In the case of `O=c1c2ccccc2nc(C2CCCCC2)n1NCc1ccc(Br)cc1` [Example 44, 3-(4-bromobenzylamino)-2-cyclohexylquinazolin-4(3H)-one], the EC50 is no more than 10 µM.

Take `O=c1c2ccccc2nc(C2CCCCC2)n1NCc1ccc(Cl)cc1` [Example 45, 3-(4-chlorobenzylamino)-2-cyclohexylquinazolin-4(3H)-one]: the 50% effective concentration (EC50) was no more than 10 µM.

Regarding `O=c1c2ccccc2nc(-c2cccc(Cl)c2)n1NCc1ccc(Br)cc1` [Example 46, 3-(4-bromobenzylamino)-2-(3-chlorophenyl)quinazolin-4(3H)-one], the EC50 is no more than 10 µM.

Consider `O=c1c2ccccc2nc(-c2ccc(Cl)cc2)n1NCc1ccc(Br)cc1` [Example 47, 3-(4-bromobenzylamino)-2-(4-chlorophenyl)quinazolin-4(3H)-one], for which the concentration giving a half-maximal response (EC50) was no more than 10 µM.

As to `O=c1c2ccccc2nc(-c2cccc(Cl)c2)n1NCc1ccc(Cl)cc1` [Example 48, 3-(4-chlorobenzylamino)-2-(3-chlorophenyl)quinazolin-4(3H)-one], the EC50 was no more than 10 µM.

With `O=c1c2ccccc2nc(-c2cccc(Cl)c2)n1NCc1ccc(C(F)(F)F)cc1` [Example 49, 2-(3-chlorophenyl)-3-(4-(trifluoromethyl)benzylamino)quinazolin-4(3H)-one], the EC50 was no more than 10 µM.

On to `O=c1c2ccccc2nc(-c2cccc(Cl)c2)n1NCc1ccc(F)c(F)c1` [Example 50, 2-(3-chlorophenyl)-3-(3,4-difluorobenzylamino)quinazolin-4(3H)-one], for which the EC50 is no more than 10 µM.

As for `O=c1c2ccccc2nc(-c2ccc(Cl)cc2)n1NCc1ccc(Cl)cc1` [Example 51, 3-(4-chlorobenzylamino)-2-(4-chlorophenyl)quinazolin-4(3H)-one], the half-maximal effective concentration (EC50) was no more than 10 µM.

For the compound `O=c1c2ccccc2nc(-c2ccc(Cl)cc2)n1NCc1ccc(C(F)(F)F)cc1` [Example 52, 2-(4-chlorophenyl)-3-(4-(trifluoromethyl)benzylamino)quinazolin-4(3H)-one], the EC50 is no more than 10 µM.

On to `O=c1c2ccccc2nc(-c2ccc(Cl)cc2)n1NCc1ccc(F)c(F)c1` [Example 53, 2-(4-chlorophenyl)-3-(3,4-difluorobenzylamino)quinazolin-4(3H)-one], for which the concentration for a half-maximal effect (EC50) was no more than 10 µM.

On to `Cc1cc(-c2nc3ccccc3c(=O)n2NCc2ccc(Br)cc2)ccc1F` [Example 54, 3-(4-bromobenzylamino)-2-(4-fluoro-3-methylphenyl)quinazolin-4(3H)-one], for which the EC50 was no more than 10 µM.

Turning to `COc1cccc(-c2nc3ccccc3c(=O)n2NCc2ccc(Br)cc2)c1` [Example 55, 3-(4-bromobenzylamino)-2-(3-methoxyphenyl)quinazolin-4(3H)-one], the EC50 is no more than 10 µM.

As to `COc1cccc(-c2nc3ccccc3c(=O)n2NCc2ccc(Cl)cc2)c1` [Example 56, 3-(4-chlorobenzylamino)-2-(3-methoxyphenyl)quinazolin-4(3H)-one], the EC50 is no more than 10 µM.

Take `Cc1cc(-c2nc3ccccc3c(=O)n2NCc2ccc(Cl)cc2)ccc1F` [Example 57, 3-(4-chlorobenzylamino)-2-(4-fluoro-3-methylphenyl)quinazolin-4(3H)-one]: the EC50 is no more than 10 µM.

For `COc1cc(OC)cc(-c2nc3ccccc3c(=O)n2NCc2ccc(Br)cc2)c1` [Example 58, 3-(4-bromobenzylamino)-2-(3,5-dimethoxyphenyl)quinazolin-4(3H)-one], the EC50 was no more than 10 µM.

As to `COc1cc(OC)cc(-c2nc3ccccc3c(=O)n2NCc2ccc(Cl)cc2)c1` [Example 59, 3-(4-chlorobenzylamino)-2-(3,5-dimethoxyphenyl)quinazolin-4(3H)-one], the EC50 was no more than 10 µM.

Take `O=c1c2ccccc2nc(-c2cccc(OC(F)(F)F)c2)n1NCc1ccc(Br)cc1` [Example 60, 3-(4-bromobenzylamino)-2-(3-(trifluoromethoxy)phenyl)quinazolin-4(3H)-one]: the EC50 was no more than 10 µM.

For `O=c1c2ccccc2nc(-c2cccc(OC(F)(F)F)c2)n1NCc1ccc(Cl)cc1` [Example 61, 3-(4-chlorobenzylamino)-2-(3-(trifluoromethoxy)phenyl)quinazolin-4(3H)-one], the EC50 is no more than 10 µM.

Take `COc1ccc(-c2nc3ccccc3c(=O)n2NCc2ccc(Cl)cc2)cc1OC` [Example 62, 3-(4-chlorobenzylamino)-2-(3,4-dimethoxyphenyl)quinazolin-4(3H)-one]: the EC50 is greater than 10 µM.

Take `O=c1c2ccccc2nc(-c2ccc3c(c2)OCO3)n1NCc1ccc(Br)cc1` [Example 63, 2-(benzo[d][1,3]dioxol-5-yl)-3-(4-bromobenzylamino)quinazolin-4(3H)-one]: the EC50 is no more than 10 µM.

On to `O=c1c2ccccc2nc(-c2ccc3c(c2)OCO3)n1NCc1ccc(Cl)cc1` [Example 64, 2-(benzo[d][1,3]dioxol-5-yl)-3-(4-chlorobenzylamino)quinazolin-4(3H)-one], for which the EC50 was no more than 10 µM.

Take `COc1cc(-c2nc3ccccc3c(=O)n2NCc2ccc(Br)cc2)ccc1C` [Example 65, 3-(4-bromobenzylamino)-2-(3-methoxy-4-methylphenyl)quinazolin-4(3H)-one]: the EC50 was no more than 10 µM.

Regarding `COc1cc(-c2nc3ccccc3c(=O)n2NCc2ccc(Cl)cc2)ccc1C` [Example 66, 3-(4-chlorobenzylamino)-2-(3-methoxy-4-methylphenyl)quinazolin-4(3H)-one], the EC50 was no more than 10 µM.

As to `COc1cc(-c2nc3ccccc3c(=O)n2NCc2ccc(F)cc2)ccc1C` [Example 67, 3-(4-fluorobenzylamino)-2-(3-methoxy-4-methylphenyl)quinazolin-4(3H)-one], the EC50 is no more than 10 µM.

`COc1cc(-c2nc3ccccc3c(=O)n2NCc2ccc(C(F)(F)F)cc2)ccc1C` [Example 68, 2-(3-methoxy-4-methylphenyl)-3-(4-(trifluoromethyl)benzylamino)quinazolin-4(3H)-one]: the EC50 was no more than 10 µM.

With `COc1cc(-c2nc3ccccc3c(=O)n2NCc2ccc(F)c(F)c2)ccc1C` [Example 69, 3-(3,4-difluorobenzylamino)-2-(3-methoxy-4-methylphenyl)quinazolin-4(3H)-one], the EC50 is no more than 10 µM.

The values are drawn from patent publication US20090035306A1 (KALYPSYS, INC., priority 2006, published 2009).
